Assay results published in publication PMC11792831, “Design and synthesis of doublecortin-like kinase 1 inhibitors and their bioactivity evaluation” (Journal of Enzyme Inhibition and Medicinal Chemistry, 2023).
pIC50: −log10 of the molar value.

Key:
HCT116 = experiment: In vitro cytotoxicity / anti-proliferation assay (CCK8); type: cell-based; settings: Homo sapiens, HCT-116, colorectal cancer cell line HCT116, 72 h
Description: To determine whether DCLK1 was required for tumour cell proliferation, the cytotoxicity of compounds was evaluated in colorectal cancer cell line HCT116. HCT116 was treated with compounds for 72 h, and the cell viability was determined using CCK8 assay (Figure 4). The antiproliferative effects of most compounds on HCT116 were correlated with their DCLK1 inhibitory activities, except for compounds D1 and D2. The poor cytotoxicity of compounds D1 and D2 may be attributed to their poor cell membrane permeability due to the negatively charged carboxylates. […] Overall, targeting DCLK1 inhibited the proliferation of HCT116, indicating the importance of DCLK1 in tumour growth.
A 96-well plate (3599, Corning, USA) was inoculated with 100 μL of complete medium containing 10 000 cells, and the experimental, control, and blank groups were established. Three parallel wells were used per concentration. After 10 h, media from the experimental and control groups were replaced with a complete medium containing the indicated concentration of the compound. Cells were incubated for 72 h before 10 μL of CCK8 reagent (CA1210, Solarbio, China) was added to each well and incubated for 1 h. The absorbance at 450 nm was measured with a microplate reader (Tecan, Switzerland). The IC50 was determined using GraphPad Prism 8 and nonlinear regression curve fitting.

DCLK1 = target: T1, DCLK1 (Homo sapiens, UniProt O15075); experiment: In vitro DCLK1 kinase activity assay (Eurofins); type: biochemical; settings: for Selectivity (IC50 of DCLK1/IC50 of LRRK2): ratio of IC50 values; for Selectivity (DCLK1 activity/LRRK2 activity): ratio of remaining activities at 1 uM; for pIC50: read-out: IC50 of DCLK1; for activity at 1 µM: remaining kinase activity at 1 uM compound, 100% = no inhibition, 0% = complete inhibition, read-out: DCLK1 activity (%)
T1 construct: purchased Eurofins (Belgium), contract assay service
T1 sequence (O15075 1-740): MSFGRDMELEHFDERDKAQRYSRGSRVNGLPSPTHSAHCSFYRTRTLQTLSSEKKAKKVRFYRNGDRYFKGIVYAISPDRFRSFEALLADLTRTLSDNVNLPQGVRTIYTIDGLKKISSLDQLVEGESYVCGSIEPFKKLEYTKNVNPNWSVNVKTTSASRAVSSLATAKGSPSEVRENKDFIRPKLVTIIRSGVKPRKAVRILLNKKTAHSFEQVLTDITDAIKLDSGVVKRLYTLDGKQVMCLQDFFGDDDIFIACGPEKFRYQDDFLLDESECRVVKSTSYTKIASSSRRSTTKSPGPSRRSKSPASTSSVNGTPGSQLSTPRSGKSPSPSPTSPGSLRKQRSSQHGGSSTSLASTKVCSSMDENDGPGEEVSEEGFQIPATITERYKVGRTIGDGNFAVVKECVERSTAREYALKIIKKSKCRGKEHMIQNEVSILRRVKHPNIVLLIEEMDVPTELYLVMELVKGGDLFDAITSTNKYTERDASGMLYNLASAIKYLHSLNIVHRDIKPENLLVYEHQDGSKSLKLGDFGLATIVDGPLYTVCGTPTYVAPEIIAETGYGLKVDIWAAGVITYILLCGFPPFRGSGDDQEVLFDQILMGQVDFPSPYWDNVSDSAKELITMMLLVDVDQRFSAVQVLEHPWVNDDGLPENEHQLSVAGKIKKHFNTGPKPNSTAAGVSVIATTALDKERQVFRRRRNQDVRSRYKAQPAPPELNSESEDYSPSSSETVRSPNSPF
Excerpt: (§1) Eurofins (Belgium) conducted in vitro DCLK1 and LRRK2 kinase activity assays. Compounds were sent as dry powders to Eurofins.

LRRK2 = target: T2, LRRK2 (Homo sapiens, UniProt Q5S007); experiment: In vitro LRRK2 kinase activity assay (Eurofins); type: biochemical; settings: for activity at 1 µM: remaining kinase activity at 1 uM compound, 100% = no inhibition, 0% = complete inhibition
T2 construct: purchased Eurofins (Belgium), contract assay service
Description: All compounds were tested for their kinase inhibitory activity at the concentration of 1 μM. […] Compounds with high activity or good selectivity were selected for further IC50 determination (Table 2).
as §1

T2 sequence (Q5S007 whole entry): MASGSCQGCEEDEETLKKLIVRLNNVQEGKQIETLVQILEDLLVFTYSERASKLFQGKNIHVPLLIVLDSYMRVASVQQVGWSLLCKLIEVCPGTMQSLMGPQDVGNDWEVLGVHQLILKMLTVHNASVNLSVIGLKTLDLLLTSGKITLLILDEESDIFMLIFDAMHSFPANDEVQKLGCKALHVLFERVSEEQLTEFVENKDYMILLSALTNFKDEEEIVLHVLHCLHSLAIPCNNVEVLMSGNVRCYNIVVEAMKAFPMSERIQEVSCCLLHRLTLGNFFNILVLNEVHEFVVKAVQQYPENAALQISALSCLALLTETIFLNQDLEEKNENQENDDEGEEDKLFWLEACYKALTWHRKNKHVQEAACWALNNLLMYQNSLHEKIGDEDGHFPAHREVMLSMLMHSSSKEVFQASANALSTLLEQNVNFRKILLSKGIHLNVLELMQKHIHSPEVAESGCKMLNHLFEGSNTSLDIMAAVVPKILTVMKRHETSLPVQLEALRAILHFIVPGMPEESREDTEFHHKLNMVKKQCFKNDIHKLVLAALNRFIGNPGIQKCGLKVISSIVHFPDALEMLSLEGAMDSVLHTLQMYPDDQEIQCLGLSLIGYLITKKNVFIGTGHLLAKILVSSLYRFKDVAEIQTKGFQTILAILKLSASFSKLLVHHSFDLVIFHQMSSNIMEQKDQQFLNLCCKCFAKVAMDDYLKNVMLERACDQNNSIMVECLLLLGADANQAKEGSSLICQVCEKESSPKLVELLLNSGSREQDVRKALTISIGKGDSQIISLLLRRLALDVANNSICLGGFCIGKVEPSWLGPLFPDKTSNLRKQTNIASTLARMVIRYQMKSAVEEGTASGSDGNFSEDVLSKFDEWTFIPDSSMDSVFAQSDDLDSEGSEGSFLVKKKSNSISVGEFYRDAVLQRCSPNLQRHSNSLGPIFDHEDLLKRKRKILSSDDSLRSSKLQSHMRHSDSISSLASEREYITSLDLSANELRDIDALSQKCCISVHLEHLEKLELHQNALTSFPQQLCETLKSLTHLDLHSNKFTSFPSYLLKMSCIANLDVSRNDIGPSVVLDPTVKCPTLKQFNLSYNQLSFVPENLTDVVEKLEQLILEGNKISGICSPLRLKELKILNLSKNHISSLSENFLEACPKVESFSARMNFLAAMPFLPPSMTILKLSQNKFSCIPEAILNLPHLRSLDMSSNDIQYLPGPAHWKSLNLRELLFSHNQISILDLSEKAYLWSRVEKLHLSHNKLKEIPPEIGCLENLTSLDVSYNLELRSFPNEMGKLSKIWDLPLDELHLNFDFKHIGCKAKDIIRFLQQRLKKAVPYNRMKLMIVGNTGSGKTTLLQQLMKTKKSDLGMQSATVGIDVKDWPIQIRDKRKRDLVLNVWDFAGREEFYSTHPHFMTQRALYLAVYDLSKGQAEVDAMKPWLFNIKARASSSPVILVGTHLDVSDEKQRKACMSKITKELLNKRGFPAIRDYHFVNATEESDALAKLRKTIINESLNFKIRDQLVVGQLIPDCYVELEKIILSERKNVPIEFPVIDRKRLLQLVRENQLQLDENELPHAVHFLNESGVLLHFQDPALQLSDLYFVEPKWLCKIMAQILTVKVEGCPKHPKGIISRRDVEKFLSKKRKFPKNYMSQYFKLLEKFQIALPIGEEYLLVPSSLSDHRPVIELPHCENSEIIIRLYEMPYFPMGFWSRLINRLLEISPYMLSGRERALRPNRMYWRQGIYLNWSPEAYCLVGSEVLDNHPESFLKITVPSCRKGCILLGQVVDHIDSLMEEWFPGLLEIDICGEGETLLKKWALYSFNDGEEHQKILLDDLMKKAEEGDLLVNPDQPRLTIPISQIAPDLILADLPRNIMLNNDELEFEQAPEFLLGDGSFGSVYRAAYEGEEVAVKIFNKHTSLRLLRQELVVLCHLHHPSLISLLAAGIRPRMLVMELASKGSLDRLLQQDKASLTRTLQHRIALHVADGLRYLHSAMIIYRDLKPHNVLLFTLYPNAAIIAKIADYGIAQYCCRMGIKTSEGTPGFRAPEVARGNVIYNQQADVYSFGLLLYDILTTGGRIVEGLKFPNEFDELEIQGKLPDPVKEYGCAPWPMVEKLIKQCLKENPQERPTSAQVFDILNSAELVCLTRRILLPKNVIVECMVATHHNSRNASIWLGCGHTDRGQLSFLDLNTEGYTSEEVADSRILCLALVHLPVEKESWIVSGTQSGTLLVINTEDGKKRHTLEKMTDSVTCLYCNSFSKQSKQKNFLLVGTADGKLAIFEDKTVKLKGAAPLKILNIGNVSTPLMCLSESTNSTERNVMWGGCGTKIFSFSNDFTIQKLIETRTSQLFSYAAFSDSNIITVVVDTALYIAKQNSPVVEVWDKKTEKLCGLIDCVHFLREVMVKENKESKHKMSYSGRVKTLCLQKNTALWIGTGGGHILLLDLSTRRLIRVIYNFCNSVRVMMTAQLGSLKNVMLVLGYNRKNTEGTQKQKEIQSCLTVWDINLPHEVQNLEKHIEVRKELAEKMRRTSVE

| SMILES | pIC50 (HCT116) | melting point | Selectivity (IC50 of DCLK1/IC50 of LRRK2) (DCLK1) | Selectivity (DCLK1 activity/LRRK2 activity) (DCLK1) | pIC50 (DCLK1) | activity at 1 µM (DCLK1) | pIC50 (LRRK2) | activity at 1 µM (LRRK2) |
| --- | --- | --- | --- | --- | --- | --- | --- | --- |
| COc1cc(N2CCC(C)(O)CC2)ccc1Nc1ncc2c(n1)N(C)c1ccccc1C(=O)N2C [Compound D15, 2-((4-(4-Hydroxy-4-methylpiperidin-1-yl)-2-methoxyphenyl)amino)-5,11-dimethyl-5,11-dihydro-6H-benzo[e]pyrimido[5,4-b][1,4]diazepin-6-one] | 5.01 | 162 to 163 °C | 0.58 | 0.44 | 7.28 | 4% | 7.05 | 9% |
| CCOc1cc(N2CCSCC2)ccc1Nc1ncc2c(n1)N(C)c1ccccc1C(=O)N2C [Compound D4, 2-((2-Ethoxy-4-thiomorpholinophenyl)amino)-5,11-dimethyl-5,11-dihydro-6H-benzo[e]pyrimido[5,4-b][1,4]diazepin-6-one] | 4.54 | 190 to 191 °C | 0.64 | 0.55 | 6.57 | 18% | 6.37 | 33% |
